Earlier results as cited in patent US20250144015A1, “Pharmaceutical Compositions” (Extrovis AG, priority 2023, published 2025).

Test system: opioid craving
Settings: single high dose of 16 mg or 32 mg; opioid-dependent patients

## CO[C@@]12CC[C@@]3(C[C@@H]1[C@](C)(O)C(C)(C)C)C1Cc4ccc(O)c5c4[C@@]3(CCN1CC1CC1)[C@H]2O5 [buprenorphine, [5α,7α(S)]-17-(Cyclopropylmethyl)-α-(1,1-dimethylethyl)-4,5-epoxy-18,19-dihydo-3-hydroxy-6-methoxy-α-methyl-6,14-ethenomorphinan-7-methanol]
  Effect on opioid craving: reduce opioid craving
